Test results from patent US20260062412A1, “NITROGEN-CONTAINING HETEROCYCLIC COMPOUND HAVING MYT1 INHIBITORY ACTIVITY” (CHUGAI SEIYAKU KABUSHIKI KAISHA, priority 2023, published 2026).

target: MYT1 protein (Homo sapiens (Human), UniProt Q99640); test: Test for binding to ATP binding site of MYT1 (Kinase Tracer 178 / Eu-Anti-GST antibody TR-FRET); settings: ATP binding site of MYT1, 30 minutes at room temperature
Sequence (Q99640 whole entry): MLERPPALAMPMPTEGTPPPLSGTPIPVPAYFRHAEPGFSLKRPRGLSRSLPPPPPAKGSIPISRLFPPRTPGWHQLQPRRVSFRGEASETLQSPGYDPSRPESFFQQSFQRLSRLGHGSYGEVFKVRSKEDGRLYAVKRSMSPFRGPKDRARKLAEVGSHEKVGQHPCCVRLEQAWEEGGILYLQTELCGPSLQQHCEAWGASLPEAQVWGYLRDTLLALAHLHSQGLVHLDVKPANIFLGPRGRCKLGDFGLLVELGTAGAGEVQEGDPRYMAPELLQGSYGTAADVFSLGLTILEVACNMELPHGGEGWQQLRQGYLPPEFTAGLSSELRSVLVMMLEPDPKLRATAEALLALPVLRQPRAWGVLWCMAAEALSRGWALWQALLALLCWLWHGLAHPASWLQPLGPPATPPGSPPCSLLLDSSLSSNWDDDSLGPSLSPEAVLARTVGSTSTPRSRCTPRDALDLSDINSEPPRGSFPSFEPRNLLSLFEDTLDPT

Row | SMILES | IC50 [nM]
1 | Nc1c(-c2ccc(F)c3[nH]ncc23)c2cc(OC3CC(C(F)(F)F)C3)c3ncccc3c2[nH]c1=O (centres unmarked) [Compound C57, 3-Amino-4-(7-fluoro-1H-indazol-4-yl)-6-[3-(trifluoromethyl)cyclobutyl]oxy-1H-1,7-one] | 2.5
2 | Nc1c(-c2ccc(F)c3[nH]ncc23)c2cc(OC3CC(C(F)F)C3)c3ncccc3c2[nH]c1=O (centres unmarked) [Compound C58, 3-Amino-6-[3-(difluoromethyl)cyclobutyl]oxy-4-(7-fluoro-1H-indazol-4-yl)-1H-1,7-phenanthrolin-2-one] | 1.5
3 | CC(C)(COc1cc2c(-c3ccc(F)c4[nH]ncc34)c(N)c(=O)[nH]c2c2cccnc12)C(F)(F)F [Compound C59, 3-Amino-4-(7-fluoro-1H-indazol-4-yl)-6-(3,3,3-trifluoro-2,2-dimethylpropoxy)-1H-1,7-one] | 5.3
4 | Nc1c(-c2ccc(F)c3[nH]ncc23)c2cc(SC(F)F)c3ncccc3c2[nH]c1=O [Compound C63, 3-Amino-6-(difluoromethylsulfanyl)-4-(7-fluoro-1H-indazol-4-yl)-1H-1,7-phenanthrolin-2-one] | 1.1
5 | Nc1c(-c2cc(F)c(F)c3[nH]ncc23)c2cc(Br)c3ncccc3c2[nH]c1=O [Compound C66, 3-Amino-6-bromo-4-(6,7-difluoro-1H-indazol-4-yl)-1H-1,7-phenanthrolin-2-one] | 4.9
6 | Nc1c(-c2cc(F)c(F)c3[nH]ncc23)c2cc(OCC(F)F)c3ncccc3c2[nH]c1=O [Compound C68, 3-Amino-6-(2,2-difluoroethoxy)-4-(6,7-difluoro-1H-indazol-4-yl)-1H-1,7-phenanthrolin-2-one] | 1.4
7 | Nc1c(-c2cc(F)c(F)c3[nH]ncc23)c2cc(OCC3CC3)c3ncccc3c2[nH]c1=O [Compound C70, 3-Amino-6-(cyclopropylmethoxy)-4-(6,7-difluoro-1H-indazol-4-yl)-1H-1,7-phenanthrolin-2-one] | 1.1

Results, then the compound that gave them:

Row | IC50 [nM] | SMILES
8 | 1.4 | N#CC1(COc2cc3c(-c4ccc(F)c5[nH]ncc45)c(N)c(=O)[nH]c3c3cccnc23)CC1 [Compound C54, 1-[[3-Amino-4-(7-fluoro-1H-indazol-4-yl)-2-oxo-1H-1,7-phenanthrolin-6-yl]oxymethyl]cyclopropane-1-carbonitrile]
9 | 0.92 | N#CC1(COc2cc3c(-c4ccc(F)c5[nH]ncc45)c(N)c(=O)[nH]c3c3cccnc23)CCC1 [Compound C55, 1-[[3-Amino-4-(7-fluoro-1H-indazol-4-yl)-2-oxo-1H-1,7-phenanthrolin-6-yl]oxymethyl]cyclobutane-1-carbonitrile]
10 | 1.7 | Nc1c(-c2ccc(F)c3[nH]ncc23)c2cc(OCC3(F)CCC3)c3ncccc3c2[nH]c1=O [Compound C56, 3-Amino-6-[(1-fluorocyclobutyl)methoxy]-4-(7-fluoro-1H-indazol-4-yl)-1H-1,7-phenanthrolin-2-one]
11 | 0.85 | CCCOc1cc2c(-c3ccc(F)c4[nH]ncc34)c(N)c(=O)[nH]c2c2cccnc12 [Compound C60, 3-Amino-4-(7-fluoro-1H-indazol-4-yl)-6-propoxy-1H-1,7-phenanthrolin-2-one]
12 | 1.7 | C[C@@H](F)COc1cc2c(-c3ccc(F)c4[nH]ncc34)c(N)c(=O)[nH]c2c2cccnc12 [Compound C61, (R)-3-amino-4-(7-fluoro-1H-indazol-4-yl)-6-(2-fluoropropoxy)-1,7-phenanthrolin-2(1H)-one]
13 | 1.6 | N#CCOc1cc2c(-c3ccc(F)c4[nH]ncc34)c(N)c(=O)[nH]c2c2cccnc12 [Compound C62, 2-[[3-Amino-4-(7-fluoro-1H-indazol-4-yl)-2-oxo-1H-1,7-phenanthrolin-6-yl]oxy]acetonitrile]
14 | 1.7 | Nc1c(-c2cc(F)c(F)c3[nH]ncc23)c2cc(OCC3(F)CC3)c3ncccc3c2[nH]c1=O [Compound C71, 3-Amino-4-(6,7-difluoro-1H-indazol-4-yl)-6-[(1-fluorocyclopropyl)methoxy]-1H-1,7-one]
